# Measurements reported in patent US9737542B2, “Pyrrolotriazine kinase inhibitors” (BRISTOL-MYERS SQUIBB COMPANY, priority 2013, dated 2017).
# Molecular target: GST-Xa-hAAK1 (Homo sapiens (Human), UniProt Q2M2I8)
# Assay: AAK1 Kinase Assay
# Format: biochemical
# Conditions: ATP 22 μM; 3 hours at room temperature
# Method: The assays were performed in U-bottom 384-well plates. […] The reactions were initiated by the combination of bacterially expressed, GST-Xa-hAAK1 with substrates and test compounds. The reactions were incubated at room temperature for 3 hours and terminated by adding 60 μl of 35 mM EDTA buffer to each sample. The reactions were analyzed on the Caliper LabChip 3000 (Caliper, Hopkinton, Mass.) by electrophoretic separation of the fluorescent substrate and phosphorylated product. Inhibition data were calculated by comparison to EDTA quenched control reactions for 100% inhibition and vehicle-only reactions for 0% inhibition. […] Dose response curves were generated to determine the concentration required inhibiting 50% of kinase activity (IC50). Compounds were dissolved at 10 mM in dimethylsulfoxide (DMSO) and evaluated at eleven concentrations. IC50 values were derived by non-linear regression analysis.
# Chain of GST-Xa-hAAK1 (Q2M2I8 whole entry): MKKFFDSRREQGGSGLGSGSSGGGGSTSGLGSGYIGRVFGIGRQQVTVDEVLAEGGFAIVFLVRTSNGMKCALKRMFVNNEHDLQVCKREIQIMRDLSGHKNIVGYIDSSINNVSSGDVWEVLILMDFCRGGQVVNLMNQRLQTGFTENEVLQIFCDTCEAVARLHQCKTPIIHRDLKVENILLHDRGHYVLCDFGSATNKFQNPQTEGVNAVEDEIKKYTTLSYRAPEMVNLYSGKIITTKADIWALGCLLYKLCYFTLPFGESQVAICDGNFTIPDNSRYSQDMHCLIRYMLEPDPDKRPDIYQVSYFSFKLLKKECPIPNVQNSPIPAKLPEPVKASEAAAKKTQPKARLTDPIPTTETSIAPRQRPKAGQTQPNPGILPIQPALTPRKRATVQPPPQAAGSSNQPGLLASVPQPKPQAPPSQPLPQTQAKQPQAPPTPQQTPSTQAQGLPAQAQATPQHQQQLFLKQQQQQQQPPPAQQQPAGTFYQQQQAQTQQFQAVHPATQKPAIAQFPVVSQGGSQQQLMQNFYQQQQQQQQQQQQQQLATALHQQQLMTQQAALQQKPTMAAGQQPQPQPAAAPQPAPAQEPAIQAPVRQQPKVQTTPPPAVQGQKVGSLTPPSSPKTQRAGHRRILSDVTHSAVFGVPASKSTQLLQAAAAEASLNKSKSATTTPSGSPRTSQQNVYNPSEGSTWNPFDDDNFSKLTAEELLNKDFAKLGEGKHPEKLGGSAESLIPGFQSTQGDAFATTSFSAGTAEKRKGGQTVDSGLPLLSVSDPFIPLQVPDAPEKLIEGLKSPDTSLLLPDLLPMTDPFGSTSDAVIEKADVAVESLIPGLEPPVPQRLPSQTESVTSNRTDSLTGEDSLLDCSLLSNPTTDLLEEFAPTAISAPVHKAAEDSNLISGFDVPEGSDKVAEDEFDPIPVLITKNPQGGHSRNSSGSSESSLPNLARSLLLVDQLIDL
row,SMILES,IC50 [nM]
1,"CC(C)c1nc(-c2ccc(Cl)c(Nc3ncnn4ccc(CN5CCC(N)CC5)c34)c2)no1 [Example 43, 5-((4-aminopiperidin-1-yl)methyl)-N-(2-chloro-5-(5-isopropyl-1,2,4-oxadiazol-3-yl)phenyl)pyrrolo[2,1-f][1,2,4]triazin-4-amine]",265
2,"CC(C)n1nnc(-c2cccc(Nc3ncnn4ccc(CN5[C@@H]6CC[C@H]5CC(O)C6)c34)c2)n1 (stereo partly drawn) [Example 59, (1R,5S)-8-((4-((3-(2-isopropyl-2H-tetrazol-5-yl)phenyl)amino)pyrrolo[2,1-f][1,2,4]triazin-5-yl)methyl)-8-azabicyclo[3.2.1]octan-3-ol]",128
3,"CC(C)n1nnc(-c2cccc(NCc3ccn4ncnc(Nc5cccc(-c6nnn(C(C)C)n6)c5)c34)c2)n1 [Example 61, N-(3-(2-isopropyl-2H-tetrazol-5-yl)phenyl)-5-(((3-(2-isopropyl-2H-tetrazol-5-yl)phenyl)amino)methyl)pyrrolo[2,1-f][1,2,4]triazin-4-amine]",2580
4,"CC(C)n1nnc(-c2cccc(Nc3ncnn4ccc(CNCC#N)c34)c2)n1 [Example 66, 2-(((4-((3-(2-isopropyl-2H-tetrazol-5-yl)phenyl)amino)pyrrolo[2,1-f][1,2,4]triazin-5-yl)methyl)amino)acetonitrile]",1100

# Further lines, results first:
row,IC50 [nM],SMILES
1,3.3,"CC(C)n1nnc(-c2cc(O)cc(Nc3ncnn4ccc(CN5CCC(N)CC5)c34)c2)n1 [Example 36, 3-((5-((4-aminopiperidin-1-yl)methyl)pyrrolo[2,1-f][1,2,4]triazin-4-yl)amino)-5-(2-isopropyl-2H-tetrazol-5-yl)phenol]"
2,10,"CNC1CCN(Cc2ccn3ncnc(Nc4cc(F)cc(-c5noc(C(C)C)n5)c4)c23)CC1 [Example 44, N-(3-fluoro-5-(5-isopropyl-1,2,4-oxadiazol-3-yl)phenyl)-5-((4-(methylamino)piperidin-1-yl)methyl)pyrrolo[2,1-f][1,2,4]triazin-4-amine]"
3,21,"CC(C)n1nnc(-c2cc(Nc3ncnn4ccc(CN5CCC(N)CC5)c34)ccc2F)n1 [Example 49, 5-((4-aminopiperidin-1-yl)methyl)-N-(4-fluoro-3-(2-isopropyl-2H-tetrazol-5-yl)phenyl)pyrrolo[2,1-f][1,2,4]triazin-4-amine]"
4,72,"CC(C)n1nnc(-c2cccc(Nc3ncnn4ccc(CN5CCC(C#N)CC5)c34)c2)n1 [Example 65, 1-((4-((3-(2-isopropyl-2H-tetrazol-5-yl)phenyl)amino)pyrrolo[2,1-f][1,2,4]triazin-5-yl)methyl)piperidine-4-carbonitrile]"

# Same assay, conditions: ATP 22 μM; 3 hours at room temperature; listed as IC50 ranges
row,SMILES,IC50 [nM]
1,"CC(C)n1nnc(-c2ccc(O)c(Nc3ncnn4ccc(CN5CCC(N)CC5)c34)c2)n1 [Example 38, 2-((5-((4-aminopiperidin-1-yl)methyl)pyrrolo[2,1-f][1,2,4]triazin-4-yl)amino)-4-(2-isopropyl-2H-tetrazol-5-yl)phenol]",1 to 10
2,"CC(C)c1nc(-c2cc(Cl)cc(Nc3ncnn4ccc(CN5CCC(N)CC5)c34)c2)no1 [Example 45, 5-((4-aminopiperidin-1-yl)methyl)-N-(3-chloro-5-(5-isopropyl-1,2,4-oxadiazol-3-yl)phenyl)pyrrolo[2,1-f][1,2,4]triazin-4-amine]",10 to 100
3,"CC(C)c1nc(-c2cc(F)cc(Nc3ncnn4ccc(CN5CCC(N)CC5)c34)c2)no1 [Example 46, 5-((4-aminopiperidin-1-yl)methyl)-N-(3-fluoro-5-(5-isopropyl-1,2,4-oxadiazol-3-yl)phenyl)pyrrolo[1,2-f][1,2,4]triazin-4-amine]",10 to 100
4,"CC(C)n1nnc(-c2ccc(F)c(Nc3ncnn4ccc(CN5CCC(N)CC5)c34)c2)n1 [Example 50, 5-((4-aminopiperidin-1-yl)methyl)-N-(2-fluoro-5-(2-isopropyl-2H-tetrazol-5-yl)phenyl)pyrrolo[2,1-f][1,2,4]triazin-4-amine]",100 to 1000
5,"CC(C)n1nnc(-c2cc(F)cc(Nc3ncnn4ccc(CN5CCC(N)CC5)c34)c2)n1 [Example 51, 5-((4-aminopiperidin-1-yl)methyl)-N-(3-fluoro-5-(2-isopropyl-2H-tetrazol-5-yl)phenyl)pyrrolo[2,1-f][1,2,4]triazin-4-amine]",1 to 10
6,"CC(C)c1nc(-c2ccc(F)c(Nc3ncnn4ccc(CN5CCC(N)CC5)c34)c2)no1 [Example 52, 5-((4-aminopiperidin-1-yl)methyl)-N-(2-fluoro-5-(5-isopropyl-1,2,4-oxadiazol-3-yl)phenyl)pyrrolo[2,1-f][1,2,4]triazin-4-amine]",100 to 1000
7,"CC(C)n1nnc(-c2cccc(Nc3ncnn4ccc(CNC5CC6CCC(C5)N6C)c34)c2)n1 (centres unmarked) [Example 58, N-(3-(2-isopropyl-2H-tetrazol-5-yl)phenyl)-5-((8-methyl-8-azabicyclo[3.2.1]octan-3-ylamino)methyl)pyrrolo[1,2-f][1,2,4]triazin-4-amine]",1000 to 5000
8,"CC(C)n1nnc(-c2cccc(Nc3ncnn4ccc(CN5[C@@H]6CC[C@H]5CN(C)C6)c34)c2)n1 [Example 60, N-(3-(2-isopropyl-2H-tetrazol-5-yl)phenyl)-5-(((1R,5S)-3-methyl-3,8-diazabicyclo[3.2.1]octan-8-yl)methyl)pyrrolo[2,1-f][1,2,4]triazin-4-amine]",100 to 1000
9,"CC(C)Oc1cc(Nc2ncnn3ccc(CN4CCC(N)CC4)c23)cc(-c2nnn(C(C)C)n2)c1 [Example 62, 5-((4-aminopiperidin-1-yl)methyl)-N-(3-isopropoxy-5-(2-isopropyl-2H-tetrazol-5-yl)phenyl)pyrrolo[2,1-f][1,2,4]triazin-4-amine]",100 to 1000
10,"CNCc1ccn2ncnc(Nc3cccc(-c4nnn(C(C)C)n4)c3)c12 [Example 63, N-(3-(2-isopropyl-2H-tetrazol-5-yl)phenyl)-5-((methylamino)methyl)pyrrolo[2,1-f][1,2,4]triazin-4-amine]",100 to 1000

# Results, then the compound that gave them:
row,IC50 [nM],SMILES
1,100 to 1000,"CC(C)c1nnc(-c2cccc(Nc3ncnn4ccc(CN5CCNCC5)c34)c2)s1 [Example 35, N-(3-(5-isopropyl-1,3,4-thiadiazol-2-yl)phenyl)-5-(piperazin-1-ylmethyl)pyrrolo[2,1-f][1,2,4]triazin-4-amine]"
2,1 to 10,"CC(C)c1nc(-c2cc(O)cc(Nc3ncnn4ccc(CN5CCC(N)CC5)c34)c2)no1 [Example 37, 3-((5-((4-aminopiperidin-1-yl)methyl)pyrrolo[2,1-f][1,2,4]triazin-4-yl)amino)-5-(5-isopropyl-1,2,4-oxadiazol-3-yl)phenol]"
3,10 to 100,"CNC1CCN(Cc2ccn3ncnc(Nc4cccc(-c5noc(C(C)C)n5)c4)c23)CC1 [Example 39, N-(3-(5-isopropyl-1,2,4-oxadiazol-3-yl)phenyl)-5-((4-(methylamino)piperidin-1-yl)methyl)pyrrolo[2,1-f][1,2,4]triazin-4-amine]"
4,10 to 100,"CNC1CCN(Cc2ccn3ncnc(Nc4cccc(-c5nnc(C(C)C)o5)c4)c23)CC1 [Example 40, N-(3-(5-isopropyl-1,3,4-oxadiazol-2-yl)phenyl)-5-((4-(methylamino)piperidin-1-yl)methyl)pyrrolo[2,1-f][1,2,4]triazin-4-amine]"
5,10 to 100,"CNC1CCN(Cc2ccn3ncnc(Nc4cccc(-c5noc(C(C)(C)C)n5)c4)c23)CC1 [Example 41, N-(3-(5-(tert-butyl)-1,2,4-oxadiazol-3-yl)phenyl)-5-((4-(methylamino)piperidin-1-yl)methyl)pyrrolo[2,1-f][1,2,4]triazin-4-amine]"
6,10 to 100,"CNC1CCN(Cc2ccn3ncnc(Nc4cccc(-c5nnn(C(C)C)n5)c4)c23)CC1 [Example 42, N-(3-(2-isopropyl-2H-tetrazol-5-yl)phenyl)-5-((4-(methylamino)piperidin-1-yl)methyl)pyrrolo[2,1-f][1,2,4]triazin-4-amine]"
7,10 to 100,"NC1CCN(Cc2ccn3ncnc(Nc4cccc(-c5noc(C6CC6)n5)c4)c23)CC1 [Example 47, 5-((4-aminopiperidin-1-yl)methyl)-N-(3-(5-cyclopropyl-1,2,4-oxadiazol-3-yl)phenyl)pyrrolo[2,1-f][1,2,4]triazin-4-amine]"
8,10 to 100,"CC(C)c1nnc(-c2cccc(Nc3ncnn4ccc(CN5CC[C@@H](N)[C@H](O)C5)c34)c2)s1 [Example 48, (3R,4R)-4-amino-1-((4-((3-(5-isopropyl-1,3,4-thiadiazol-2-yl)phenyl)amino)pyrrolo[2,1-f][1,2,4]triazin-5-yl)methyl)piperidin-3-ol]"
9,10 to 100,"CC(=O)NC1CCN(Cc2ccn3ncnc(Nc4cccc(-c5nnc(C(C)C)s5)c4)c23)CC1 [Example 53, N-(1-((4-((3-(5-isopropyl-1,3,4-thiadiazol-2-yl)phenyl)amino)pyrrolo[2,1-f][1,2,4]triazin-5-yl)methyl)piperidin-4-yl)acetamide]"
10,100 to 1000,"CC(C)n1nnc(-c2cccc(Nc3ncnn4ccc(CN5CCN(C)CC5)c34)c2)n1 [Example 54, N-(3-(2-isopropyl-2H-tetrazol-5-yl)phenyl)-5-((4-methylpiperazin-1-yl)methyl)pyrrolo[2,1-f][1,2,4]triazin-4-amine]"
11,100 to 1000,"CC(C)c1nnc(-c2cccc(Nc3ncnn4ccc(CN5CCN(C)CC5)c34)c2)s1 [Example 55, N-(3-(5-isopropyl-1,3,4-thiadiazol-2-yl)phenyl)-5-((4-methylpiperazin-1-yl)methyl)pyrrolo[2,1-f][1,2,4]triazin-4-amine]"
12,1000 to 5000,"CC(C)c1nnc(-c2cccc(Nc3ncnn4ccc(CN5CCOCC5)c34)c2)s1 [Example 56, N-(3-(5-isopropyl-1,3,4-thiadiazol-2-yl)phenyl)-5-(morpholinomethyl)pyrrolo[2,1-f][1,2,4]triazin-4-amine]"
13,10 to 100,"CC(C)n1nnc(-c2cccc(Nc3ncnn4ccc(CN5CCOCC5)c34)c2)n1 [Example 57, N-(3-(2-isopropyl-2H-tetrazol-5-yl)phenyl)-5-(morpholinomethyl)pyrrolo[2,1-f][1,2,4]triazin-4-amine]"
14,100 to 1000,"CC(C)n1nnc(-c2cccc(Nc3ncnn4ccc(CN5CC(C#N)C5)c34)c2)n1 [Example 64, 1-((4-((3-(2-isopropyl-2H-tetrazol-5-yl)phenyl)amino)pyrrolo[2,1-f][1,2,4]triazin-5-yl)methyl)azetidine-3-carbonitrile]"
